This is an account of results in US20260176320A1, “MODULATORS OF G-PROTEIN COUPLED RECEPTORS” (priority 2018, published 2026).

pEC50: −log10 of the molar value. Read-outs that look alike come from different tables or passages of the source. A value given as a limit tells only on which side of the number the result lay.

Test [1] has as its target T1, GLP-1R (Homo sapiens, UniProt P43220). The test is described as follows: HitHunter cAMP assay (GLP-1R). The class given is cell-based. The settings on record: cAMP; for Emax: read-out: (Emax) GLP-1R; for EC50: read-out: EC50 GLP-1R/nM. The procedure, abridged:
(§1)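 cAMP, luminescence read: agonist 22-pt 2× dilution in DMSO, duplicate, 30 min RT on 10,000 cells/well in 1×HBSS/10 mM HEPES/625 μM IBMX/0.2% BSA; anti-cAMP reagent 1 h RT dark, then O/N RT dark before read.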

The target in the next test is T2, GIP-R (Homo sapiens, UniProt P48546).
T2 sequence (P48546 22-466): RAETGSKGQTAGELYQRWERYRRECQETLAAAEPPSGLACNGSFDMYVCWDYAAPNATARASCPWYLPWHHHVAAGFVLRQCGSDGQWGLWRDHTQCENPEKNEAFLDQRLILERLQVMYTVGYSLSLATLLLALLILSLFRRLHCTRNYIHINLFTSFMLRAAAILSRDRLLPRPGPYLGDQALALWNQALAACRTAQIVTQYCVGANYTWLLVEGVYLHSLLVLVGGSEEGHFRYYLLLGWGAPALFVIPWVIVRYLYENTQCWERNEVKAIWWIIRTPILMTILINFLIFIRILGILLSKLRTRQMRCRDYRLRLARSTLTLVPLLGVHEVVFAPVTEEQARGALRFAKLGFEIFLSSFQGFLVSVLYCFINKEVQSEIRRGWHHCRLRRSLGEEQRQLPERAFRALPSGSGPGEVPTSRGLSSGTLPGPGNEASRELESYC
The test is described as follows: HitHunter cAMP assay (GIP-R). The test is classed as cell-based. To be noted: cAMP; for Emax: read-out: (Emax) GIP-R; for EC50: read-out: EC50 GIP-R/nM. The essentials:
as §1

The test system of the next test is mice. The test is described as follows: Glucose tolerance test (GTT). The settings on record: 24 h GTT, s.c., dose range 2-5 nmol/kg, percent of vehicle. The class given is in vivo, mouse. As for the experimental part: Freestyle Lite glucometer and strips; compounds to be tested; sterilized glucose solution 200 mg/ml.
Compounds were diluted in PBS from the 1 mM DMSO stocks right before injection. Body weight and baseline blood glucose level for each mouse were measured. Tails were snipped using sterile scissors; blood from tails was used to measure glucose. For 0.25 h GTT, mice were fasted for 5-6 h and injected with compound subcutaneously 15 mins before glucose injection. For 4 h GTT, mice were fasted O/N for 16 h and injected with compound subcutaneously 4 h before glucose injection. For 16 h GTT, mice were injected with compound subcutaneously 16 h before glucose injection; food was removed at the same time. For 24 h GTT, mice were injected with compound subcutaneously 24 h before glucose injection; food was removed 5-6 h before glucose injection. 20% glucose in water was prepared; the solution was sterilized by 0.2 μm-filtration. An intraperitoneal injection of glucose (2 g/kg) was given to the mouse. Continued to take blood samples from the tail. Blood glucose was measured at 10, 20, 30, 40, 60, 90, and 120 minutes after glucose injection. Between each of these time points, the mouse was returned to its cage and monitored (at least 6 replicate mice were used for each time-point). The average glucose measurements were plotted as a function of time and the area under the curve (AUC) was determined.

Test [2] addresses T1, GLP-1R. In words: PathHunter β-arrestin assay. The class given is cell-based. The settings on record: PathHunter β-arrestin assay; read-out: β-arrestin activity EC50. The essentials:
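Luminescence read-out of β-arrestin recruitment (enzyme-fragment complementation detection, 3 h at room temperature in the dark) after 90 min agonist stimulation at 37 °C. Agonists tested as 22-point 2× serial dilutions in duplicate, in medium containing 0.2% BSA.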

T1 sequence (P43220 24-463): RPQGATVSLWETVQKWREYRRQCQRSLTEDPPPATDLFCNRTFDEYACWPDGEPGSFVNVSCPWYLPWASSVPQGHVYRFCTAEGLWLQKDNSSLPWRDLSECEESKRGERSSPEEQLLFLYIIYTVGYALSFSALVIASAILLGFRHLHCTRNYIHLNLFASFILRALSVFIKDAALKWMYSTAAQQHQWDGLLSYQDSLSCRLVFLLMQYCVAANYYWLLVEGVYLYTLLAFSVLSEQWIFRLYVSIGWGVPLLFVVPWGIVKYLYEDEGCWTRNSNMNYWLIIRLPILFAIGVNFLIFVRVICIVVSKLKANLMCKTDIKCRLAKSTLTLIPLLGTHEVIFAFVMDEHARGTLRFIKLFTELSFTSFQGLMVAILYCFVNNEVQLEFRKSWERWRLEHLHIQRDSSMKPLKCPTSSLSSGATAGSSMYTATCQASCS

As to `CCCCCCCCCCCCCCCC(=O)N[C@@H](CCC(=O)NCCCC[C@H](NC(=O)[C@H](CO)NC(=O)[C@@H]1CCCN1C(=O)[C@@H]1CCCN1C(=O)[C@@H]1CCCN1C(=O)[C@H](C)NC(=O)CNC(=O)[C@H](CO)NC(=O)[C@H](CO)NC(=O)[C@@H]1CCCN1C(=O)CNC(=O)CNC(=O)[C@H](C)NC(=O)[C@H](CC(C)C)NC(=O)[C@H](CC(C)C)NC(=O)[C@H](Cc1c[nH]c2ccccc12)NC(=O)[C@H](CC(N)=O)NC(=O)[C@@H](NC(=O)[C@H](Cc1ccccc1)NC(=O)[C@H](CCC(=O)O)NC(=O)C(C)(C)NC(=O)[C@H](C)NC(=O)[C@H](C)NC(=O)[C@H](CCC(N)=O)NC(=O)[C@H](CCCCN)NC(=O)[C@H](CC(=O)O)NC(=O)[C@H](CC(C)C)NC(=O)[C@H](Cc1ccc(O)cc1)NC(=O)[C@@H](NC(=O)[C@H](CO)NC(=O)[C@H](Cc1ccc(O)cc1)NC(=O)[C@H](CC(=O)O)NC(=O)[C@H](CO)NC(=O)[C@@H](NC(=O)[C@H](Cc1ccccc1)NC(=O)[C@@H](NC(=O)CNC(=O)[C@H](CCC(=O)O)NC(=O)CSCC(=O)NCCN1C(=O)CSC1=O)[C@@H](C)O)[C@@H](C)O)[C@@H](C)CC)C(C)C)C(N)=O)C(=O)O` [Compound 195], the Emax lay in the range of 93 to 113% at GLP-1R [1] (Table 3), 93 to 113% at GLP-1R [1] (Table 3A), 46 to 87% on GIP-R (Table 3) and 46 to 87% on GIP-R (Table 3A). Also, the EC50 on GLP-1R [1] (Table 3A), on GIP-R (Table 3) and at GIP-R (Table 3A) was 0.1 to 10 nM throughout. Moreover, the AUC score with mice is 2 (AUC score 2 = 26-50%). Besides, at GLP-1R [2], the pEC50 was less than 6.00.

Regarding `CCCCCCCCCCCCCCCC(=O)N[C@@H](CCC(=O)NCCCC[C@H](NC(=O)[C@H](CO)NC(=O)[C@@H]1CCCN1C(=O)[C@@H]1CCCN1C(=O)[C@@H]1CCCN1C(=O)[C@H](C)NC(=O)CNC(=O)[C@H](CO)NC(=O)[C@H](CO)NC(=O)[C@@H]1CCCN1C(=O)CNC(=O)CNC(=O)[C@H](C)NC(=O)[C@H](CC(C)C)NC(=O)[C@H](CC(C)C)NC(=O)[C@H](Cc1c[nH]c2ccccc12)NC(=O)[C@H](CC(N)=O)NC(=O)[C@@H](NC(=O)[C@H](Cc1ccccc1)NC(=O)[C@H](CCC(=O)O)NC(=O)C(C)(C)NC(=O)[C@H](C)NC(=O)[C@H](C)NC(=O)[C@H](CCC(N)=O)NC(=O)[C@H](CCCCN)NC(=O)[C@H](CC(=O)O)NC(=O)[C@H](CC(C)C)NC(=O)[C@H](Cc1ccc(O)cc1)NC(=O)[C@@H](NC(=O)[C@H](CO)NC(=O)[C@H](Cc1ccc(O)cc1)NC(=O)[C@H](CC(=O)O)NC(=O)[C@H](CO)NC(=O)[C@@H](NC(=O)[C@H](Cc1ccccc1)NC(=O)[C@@H](NC(=O)CNC(=O)[C@H](CCC(=O)O)NC(=O)CSCC(=O)NCCN1CCOCC1=O)[C@@H](C)O)[C@@H](C)O)[C@@H](C)CC)C(C)C)C(N)=O)C(=O)O` [Compound 32], the Emax at GLP-1R [1] (Table 3) amounted to 103%; at GLP-1R [1] (Table 3A) it was 103%; at GIP-R (Table 3), 65%; at GIP-R (Table 3A), 65%. In addition, the EC50 on GLP-1R [1] (Table 3) is less than 0.1 nM; at GLP-1R [1] (Table 3A), less than 0.1 nM; on GIP-R (Table 3), 1 to 10 nM; on GIP-R (Table 3A), 1 to 10 nM. In addition, the AUC score in the test on mice is recorded as 2 (AUC score 2 = 26-50%). For the same compound, the pEC50 at GLP-1R [2] is less than 6.00.

For `CCCCCCCCCCCCCCCC(=O)N[C@@H](CCC(=O)NCCCC[C@H](NC(=O)[C@H](CO)NC(=O)[C@@H]1CCCN1C(=O)[C@@H]1CCCN1C(=O)[C@@H]1CCCN1C(=O)[C@H](C)NC(=O)CNC(=O)[C@H](CO)NC(=O)[C@H](CO)NC(=O)[C@@H]1CCCN1C(=O)CNC(=O)CNC(=O)[C@H](C)NC(=O)[C@H](CC(C)C)NC(=O)[C@H](CC(C)C)NC(=O)[C@H](Cc1c[nH]c2ccccc12)NC(=O)[C@H](CC(N)=O)NC(=O)[C@@H](NC(=O)[C@H](Cc1ccccc1)NC(=O)[C@H](CCC(=O)O)NC(=O)C(C)(C)NC(=O)[C@H](C)NC(=O)[C@H](C)NC(=O)[C@H](CCC(N)=O)NC(=O)[C@H](CCCCN)NC(=O)[C@H](CC(=O)O)NC(=O)[C@H](CC(C)C)NC(=O)[C@H](Cc1ccc(O)cc1)NC(=O)[C@@H](NC(=O)[C@H](CO)NC(=O)[C@H](Cc1ccc(O)cc1)NC(=O)[C@H](CC(=O)O)NC(=O)[C@H](CO)NC(=O)[C@@H](NC(=O)[C@H](Cc1ccccc1)NC(=O)[C@@H](NC(=O)CNC(=O)[C@H](CCC(=O)O)NC(=O)CSCC(=O)NCCN1CCC(C)C1=O)[C@@H](C)O)[C@@H](C)O)[C@@H](C)CC)C(C)C)C(N)=O)C(=O)O` (single isomer, unassigned) [Compound 69], the “(Emax) GLP-1R” value on GLP-1R [1] (Table 3) and on GLP-1R [1] (Table 3A) was 104% in each case. The EC50 was in the range of 0.1 to 1 nM on GLP-1R [1] (Table 3), 0.1 to 1 nM at GLP-1R [1] (Table 3A), 1 to 10 nM on GIP-R (Table 3) and 1 to 10 nM on GIP-R (Table 3A). The “(Emax) GIP-R” value at GIP-R (Table 3) and at GIP-R (Table 3A) was 75% each time. Also, the AUC score in the test on mice was 2 (AUC score 2 = 26-50%). At GLP-1R [2], the negative logarithm of the EC50 (pEC50) was less than 6.00.

As for `CCCCCCCCCCCCCCCC(=O)N[C@@H](CCC(=O)NCCCC[C@H](NC(=O)[C@H](CO)NC(=O)[C@@H]1CCCN1C(=O)[C@@H]1CCCN1C(=O)[C@@H]1CCCN1C(=O)[C@H](C)NC(=O)CNC(=O)[C@H](CO)NC(=O)[C@H](CO)NC(=O)[C@@H]1CCCN1C(=O)CNC(=O)CNC(=O)[C@H](C)NC(=O)[C@H](CC(C)C)NC(=O)[C@H](CC(C)C)NC(=O)[C@H](Cc1c[nH]c2ccccc12)NC(=O)[C@H](CC(N)=O)NC(=O)[C@@H](NC(=O)[C@H](Cc1ccccc1)NC(=O)[C@H](CCC(=O)O)NC(=O)C(C)(C)NC(=O)[C@H](C)NC(=O)[C@H](C)NC(=O)[C@H](CCC(N)=O)NC(=O)[C@H](CCCCN)NC(=O)[C@H](CC(=O)O)NC(=O)[C@H](CC(C)C)NC(=O)[C@H](Cc1ccc(O)cc1)NC(=O)[C@@H](NC(=O)[C@H](CO)NC(=O)[C@H](Cc1ccc(O)cc1)NC(=O)[C@H](CC(=O)O)NC(=O)[C@H](CO)NC(=O)[C@@H](NC(=O)[C@H](Cc1ccccc1)NC(=O)[C@@H](NC(=O)CNC(=O)[C@H](CCC(=O)O)NC(=O)CNC(=O)CN1CCCCC1=O)[C@@H](C)O)[C@@H](C)O)[C@@H](C)CC)C(C)C)C(N)=O)C(=O)O` [Compound 2], the Emax is 99% on GLP-1R [1] (Table 3), 99% on GLP-1R [1] (Table 3A), 46% at GIP-R (Table 3) and 46% on GIP-R (Table 3A). The EC50 is less than 0.1 nM at GLP-1R [1] (Table 3), less than 0.1 nM on GLP-1R [1] (Table 3A), 1 to 10 nM at GIP-R (Table 3) and 1 to 10 nM on GIP-R (Table 3A). The AUC score in the test with mice was 2 (AUC score 2 = 26-50%). Also, the pEC50 at GLP-1R [2] is less than 6.00.
